What all share (assay type): biochemical
Test [1] concerns the target T1, rat CSE (rCSE) (Rattus norvegicus, UniProt P18757).
T1 construct: His-tag (C); made in house; host or cells: E. coli BL21
The test can be described thus: rCSE inhibition, H2S detection by fluorescence of HSip-1. The method, then:
The developed assay system employs a plate reader to detect H2S production by CSE as a fluorescence signal in a solution containing 30 μg/mL rat CSE (rCSE), 1 μM HSip-1, 100 μM pyridoxal-5′-phosphate (PLP) and 1.5 mM cysteine (a substrate) in a 384-well plate format (Fig. 1b). A large amount of rCSE was expressed in E. coli and purified on a Ni Sepharose 6 Fast Flow module. We then performed screening of a chemical library consisting of 161,600 compounds (from the Drug Discovery Initiative, the University of Tokyo) for CSE inhibitors (Fig. 1c). […] Then, a confirmation test for repeatability (n = 4) of the 160 compounds selected in the 1st screening was performed to exclude false-positives. In this step, we also excluded cysteine-reactive compounds by changing the addition order of the rCSE and cysteine (substrate) solutions. In other words, in the 1st screening, the enzyme solution was firstly added to each library compound, while in the confirmation test for repeatability of the hit compounds in the 1st screening, we firstly added the cysteine solution to each compound. This enabled us to identify and exclude cysteine-reactive compounds, based on their reaction with the added cysteine. These procedures left 80 compounds showing both more than 40% inhibition at 10 µM and similar % inhibition of rCSE irrespective of the addition order of the rCSE and cysteine solutions. In the 2nd screening, we examined the reactivity of these 80 compounds with H2S using an H2S donor[17] to exclude H2S-reactive compounds. […] In this assay, we selected 13 compounds which were non-reactive to H2S, but one was relatively unstable and two of them were the same compound, so that 11 compounds were finally selected. These compounds included some hydrazine and hydrazide derivatives, so we performed titration assay of the selected 11 compounds together with 9 commercially available hydrazine and hydrazide compounds (Supplementary Fig. S3) and calculated the half-maximal (50%) inhibitory concentration (IC50) of each compound.
The fluorescence intensity of HSip-1 was measured (λex = 490 nm, λem = 510 nm) with a microplate reader (EnVision, Perkin Elmer).
10 µL of 1.5 mM cysteine solution in 30 mM HEPES (pH 7.4) was added to 10 µL of solution containing 30 µg/mL rCSE, 100 µM PLP, 1 µM HSip-1, 0.005% tween 20 and the test compound (0.5% DMSO as a cosolvent). The mixture was incubated at 25 °C for 3 h and the fluorescence intensity of HSip-1 was measured with a microplate reader.

Test [2] deals with T2, human CSE (hCSE) (Homo sapiens, UniProt P32929).
T2 construct: expressed in transfected cells; host or cells: HEK293T
The test can be described thus: hCSE inhibition in lysate of HEK293T cells expressing hCSE, HSip-1. The settings on record: mean ± S.E., read-out: IC50, inhibitory activity towards hCSE in cell lysate. The protocol:
We first examined whether or not 1 inhibits human CSE (hCSE) in cell lysates. We prepared the lysate of HEK293T cells expressing hCSE, and added 1.5 mM cysteine, 100 μM PLP, 1 μM HSip-1 and various concentrations of 1 to it. Based on fluorescence measurements, the IC50 value of 1 for hCSE was calculated to be 26 ± 2 µM, which is similar to the value for rCSE measured in HEPES buffer (Fig. 4b). […] We also confirmed that all amino acid residues of rCSE involved in the recognition of 1 are conserved in hCSE (Supplementary Fig. S10).
10 µL of 1.5 mM cysteine solution in 30 mM HEPES (pH 7.4) was added to 10 µL of solution containing 300 µg/mL cell lysate of HEK293T cells expressing hCSE, 100 µM PLP, 1 µM HSip-1, 0.005% tween 20 and various concentrations of the inhibitor (0.5% DMSO as a cosolvent). The mixture was incubated at 37 °C for 3 h and the fluorescence intensity of HSip-1 was measured with a microplate reader.

In test [3] the target is T3, rCBS (Rattus norvegicus, UniProt P32232).
T3 construct: GST (N); HA (C); made in house; host or cells: E. coli BL21
T3 sequence (P32232 1-561): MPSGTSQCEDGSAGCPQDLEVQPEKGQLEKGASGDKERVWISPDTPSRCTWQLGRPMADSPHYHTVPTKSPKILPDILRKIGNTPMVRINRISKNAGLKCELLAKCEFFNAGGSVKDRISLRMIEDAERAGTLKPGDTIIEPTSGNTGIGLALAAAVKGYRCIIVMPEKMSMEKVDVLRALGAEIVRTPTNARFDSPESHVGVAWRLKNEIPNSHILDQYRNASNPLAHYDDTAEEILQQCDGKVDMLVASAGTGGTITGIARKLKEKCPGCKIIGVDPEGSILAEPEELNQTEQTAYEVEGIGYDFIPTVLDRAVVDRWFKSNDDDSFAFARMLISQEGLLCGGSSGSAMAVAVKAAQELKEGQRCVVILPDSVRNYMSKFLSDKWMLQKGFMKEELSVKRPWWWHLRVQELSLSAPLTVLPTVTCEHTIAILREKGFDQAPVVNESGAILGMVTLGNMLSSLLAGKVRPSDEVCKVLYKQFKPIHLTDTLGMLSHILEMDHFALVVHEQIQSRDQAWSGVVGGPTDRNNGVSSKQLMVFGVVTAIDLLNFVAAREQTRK
The test can be described thus: rCBS inhibition, HSip-1 fluorescence. The settings on record: 30 µM. The method, then: The selectivity of 1, 2 and PAG for rCSE over other RSS-producing enzymes, CBS and 3MST, was examined (Fig. 4a). CBS is a PLP-dependent enzyme, like CSE, and produces H2S from cysteine and homocysteine as substrates. 3MST is also an H2S-producing enzyme, but is not PLP-dependent and uses 3-mercaptopyruvate as a substrate. The amount of H2S produced by CBS or 3MST was evaluated in the presence or absence of the inhibitor by measuring the fluorescence intensity of HSip-1. […] We also examined the inhibitory activity towards two other PLP-dependent enzymes, MGL and ALT. MGL metabolizes L-methionine to α-ketobutyric acid, methanethiol and ammonia, and is inhibited by PAG[14]. MGL also produces H2S from homocysteine as a substrate, and this activity of MGL can be measured by fluorescence detection with HSip-1. […] The enzymatic activity of ALT can be assessed by means of a coupled assay using the reduction of pyruvate to L-lactate with lactate dehydrogenase and NADH and measuring the change in absorption of NADH.
10 µL of 2.5 mM cysteine and 2.5 mM homocysteine in 30 mM HEPES (pH 7.4) was added to 10 µL of a solution containing 20 µg/mL rCBS, 50 µM PLP, 100 µM SAM, 1 µM HSip-1, 0.005% tween 20, 0.5% DMSO and various concentrations of the inhibitors. The mixture was incubated at 37 °C for 2 h and the fluorescence intensity of HSip-1 was measured with a microplate reader.

T1 sequence (P18757 whole entry): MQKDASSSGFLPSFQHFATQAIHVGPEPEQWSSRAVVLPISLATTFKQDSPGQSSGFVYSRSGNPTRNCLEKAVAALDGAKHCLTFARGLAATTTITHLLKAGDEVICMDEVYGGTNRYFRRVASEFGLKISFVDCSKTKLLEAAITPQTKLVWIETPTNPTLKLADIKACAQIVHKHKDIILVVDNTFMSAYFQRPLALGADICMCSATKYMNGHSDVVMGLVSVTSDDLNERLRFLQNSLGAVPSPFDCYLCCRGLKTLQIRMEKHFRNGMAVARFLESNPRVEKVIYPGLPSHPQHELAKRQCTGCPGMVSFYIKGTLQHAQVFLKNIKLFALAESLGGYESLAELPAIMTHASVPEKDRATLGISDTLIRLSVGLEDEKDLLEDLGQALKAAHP
T2 sequence (P32929 whole entry): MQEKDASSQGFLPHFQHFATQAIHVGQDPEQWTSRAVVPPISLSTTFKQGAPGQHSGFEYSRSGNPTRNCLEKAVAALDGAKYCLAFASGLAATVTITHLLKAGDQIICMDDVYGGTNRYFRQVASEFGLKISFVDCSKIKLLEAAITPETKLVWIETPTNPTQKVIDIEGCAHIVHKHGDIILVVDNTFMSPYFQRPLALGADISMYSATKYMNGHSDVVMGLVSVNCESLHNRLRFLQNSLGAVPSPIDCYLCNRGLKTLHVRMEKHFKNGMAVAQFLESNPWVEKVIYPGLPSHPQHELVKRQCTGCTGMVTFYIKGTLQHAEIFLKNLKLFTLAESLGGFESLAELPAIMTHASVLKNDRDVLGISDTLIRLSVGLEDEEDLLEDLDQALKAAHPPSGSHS

By IC50 is commonly meant the midpoint of a concentration-inhibition curve. For `NNC(=O)C(N)=O` [Compound 1, oxamic hydrazide], the concentration for half-maximal inhibition (IC50) in test [1] (fluorescence assay with HSip-1, 1.5 mM cysteine, 100 μM PLP, mean ± S.E., read-out: IC50, inhibitory activity towards rCSE) is 13 ± 1 µM; in test [2], 26 ± 2 µM. For the same compound, the “selectivity for CSE among the compounds examined (1, 2, PAG)” value in test [1] (versus CBS, 3MST, MGL and ALT) is given as “highest selectivity for CSE”. Moreover, the “selectivity for CSE over CBS” value in test [3] was “high selectivity for CSE over CBS”.

These data come from PMC10542788, “Discovery of a cystathionine γ-lyase (CSE) selective inhibitor targeting active-site pyridoxal 5′-phosphate (PLP) via Schiff base formation” (Scientific Reports, 2023).
